The structures appear in SMILES notation. Where “and” joins values, the source holds several entries; their conditions need not be identical. Identical values can stand only once.

Series [1] can be described thus: Pharmacokinetic evaluation of CM4309.TsOH, CM4309.HCl and CM4309.H2O in SD rats. It counts as in vivo. The following applies: for HL_Lambda_z / AUCINF_obs / AUClast / Cmax / MRTINF_obs / Tmax / AUC(0-t) / AUC(0-inf) / MRT inf: 3 mg/kg (calculated by CM4309) intragastric, suspension in 0.5% CMC, CM4309 in plasma; for AUC(0-inf): read-out: AUCINF_obs; for MRT inf: read-out: MRTINF_obs. As to the method: Twelve male SD rats, weighing about 170 g, were randomly separated into […] and four rats in each group, and fasted overnight. The rats were administrated intragastric ally at a dose of 3 mg/kg (in a concentration of 1 mg/mL calculated by CM4309, and suspended in 0.5% CMC in purified water) of CM4309.TsOH, CM4309.HCl or CM4309.H2O. After administration, blood samples were collected at 0.25, 0.5, 1, 2, 4, 6, 8, 12, 24, 36 and 48 h. The blood samples were centrifuged for 5 minutes at 5000 rpm to separate the plasma. The concentration of CM4309 in plasma was measured by LC/MS/MS to compare the PK difference between CM4309 salts and CM4309 (see Table 1).

Series [2] is described as follows: Pharmacokinetic evaluation of CM4309.TsOH and CM4309.H2O in Beagle dogs. It is filed as in vivo. The following applies: for AUC(0-t) / Cmax / Tmax / AUClast: 2.5 mg/kg (calculated by CM4309) oral in capsule, 2×2 crossover, CM4309 in plasma. The procedure: Four female Beagle dogs, 7-9 months old, weighing about 8 kg, were randomly separated into two groups and two dogs in each group, and fasted overnight. The dogs were administrated orally at a dose of 2.5 mg/kg (calculated by CM4309) of CM4309.TsOH or CM4309.H2O in capsule with 2×2 crossover design. Blood samples were collected before administration and at 0.25, 0.5, 1, 2, 4, 6, 8, 12, 24, 36 and 48 h after administration. The blood samples were centrifuged for 10 minutes at 3500 rpm to separate the plasma. The concentration of CM4309 in plasma was measured by LC/MS/MS to compare the PK difference between CM4309 salts and CM4309 (see Table 2).

A short description of series [3]: Pharmacokinetic evaluation of CM4306, CM4308 and CM4309 in rats (mixed solution, intragastric). It is filed as in vivo, SD rats. The following applies: 4 mg/kg intragastric, mixed solution in PEG400, plasma; for MRT inf: read-out: MRT(0-∞).
Experimental: Blood samples were collected at 0.25, 0.5, 1.0, 2.0, 3.0, 5.0, 7.0, 9.0, 24, 36, 48 and 72 h after the administration.
Series [4] has as its target c-Kit protein tyrosine kinase (Homo sapiens, UniProt P10721). The series is described as follows: ELISA inhibition of c-Kit protein tyrosine kinase at the molecular level. It counts as biochemical. The following applies: c-Kit and PDGFR-β; efficacy if inhibition rate at 10^-5 mol/L greater than 50%. The procedure: The activity of diphenylurea compounds for inhibiting c-Kit, PDGFR-β protein tyrosine kinases on molecular level was tested by Enzyme-Linked Immunosorbent Assay (ELISA).
Reacting substrate Poly(Glu,Tyr)4:1 was bought from Sigma; Monoclonal antibody against tyrosine phosphate PY99 was bought from Santa Cruz; Horseradish peroxidase labeled sheep-against-rat IgG was bought from Calbiochem; ATP, DTT, OPD were bought from Amresco; microplates were bought from Corning; Su11248 was bought from Merk.
See Roskoski, R., Jr. Sunitinib: a VEGF and PDGF receptor protein kinase and angiogenesis inhibitor. Biochem Biophys Res Commun, 356: 323-328, 2007. The details comprise:
Kinase reaction substrate Poly(Glu,Tyr)4:1 was diluted to 20 μg/ml by potassium-free PBS, and the microplates were coated. Diphenylurea samples to be tested were added in the wells of the coated microplates (the samples to be tested were made from the stock solution of 10^−2 M in DMSO, and diluted to the desired concentration with reaction buffer before use. The resulted solution was added into the wells to get the final concentration of 10^−5 mol/L in 100 μL reaction system). At the same time, the positive control compound Su11248 was added to the positive control wells.
ATP solution diluted with reaction buffer (the final concentration of ATP is 5 μM) and tyrosine kinase for testing diluted with reaction buffer were added in turn. The total volume of reaction system was 100 μL. At the same time, the negative control wells and the control wells without enzyme were set up.
The reaction system was placed in a wet box and shaked for 1 h at 37° C. by shaking shielding from light. After the reaction was completed, plates were washed three times with T-PBS. Antibody PY99 was added (100 μL/well), and plates were shaked for 30 min at 37° C. After the reaction was completed, the plates were washed with three times T-PBS. Horseradish peroxidase labeled sheep-against-rat IgG was added (100 μL/well), and the plates were shaked for 30 min at 37° C. After the reaction was completed, the plates were washed with T-PBS for three times. OPD developing liquid was added (100 μL/well), and reacted for 1-10 min at room temperature shielding from light. 50 μL of 2 M H2SO4 was added to quench the reaction. A492 value was determined using wavelength-adjustable microplates reader VERSAmax.
The inhibition ratio of samples can be calculated by the following formula: […]
(In general: An ELISA detects its analyte on a solid surface through an enzyme-linked reagent.)

Setting [5] is: SD rats, 3 mg/kg intragastric, ratio to CM4309.H2O.
Where [6] appears, read: individual rat, p-toluenesulfonate, 3 mg/kg.
Where [7] appears, read: male, SD, rat, plasma, po, 3 mg/kg, Mean of 4 rats.
[8] abbreviates: male, SD, rat, plasma, po, 3 mg/kg, individual rat.
Where [9] appears, read: Beagle dogs, 2.5 mg/kg oral in capsule, ratio to CM4309.H2O.
Where [10] appears, read: individual dog, p-toluenesulfonate, 2.5 mg/kg.
Where [11] appears, read: male, SD, rat, plasma, po, 4 mg/kg, individual rat.
[12] abbreviates: male, SD, rat, plasma, po, 4 mg/kg, mean value of 3 rats.

Sequence of c-Kit protein tyrosine kinase (P10721 26-976): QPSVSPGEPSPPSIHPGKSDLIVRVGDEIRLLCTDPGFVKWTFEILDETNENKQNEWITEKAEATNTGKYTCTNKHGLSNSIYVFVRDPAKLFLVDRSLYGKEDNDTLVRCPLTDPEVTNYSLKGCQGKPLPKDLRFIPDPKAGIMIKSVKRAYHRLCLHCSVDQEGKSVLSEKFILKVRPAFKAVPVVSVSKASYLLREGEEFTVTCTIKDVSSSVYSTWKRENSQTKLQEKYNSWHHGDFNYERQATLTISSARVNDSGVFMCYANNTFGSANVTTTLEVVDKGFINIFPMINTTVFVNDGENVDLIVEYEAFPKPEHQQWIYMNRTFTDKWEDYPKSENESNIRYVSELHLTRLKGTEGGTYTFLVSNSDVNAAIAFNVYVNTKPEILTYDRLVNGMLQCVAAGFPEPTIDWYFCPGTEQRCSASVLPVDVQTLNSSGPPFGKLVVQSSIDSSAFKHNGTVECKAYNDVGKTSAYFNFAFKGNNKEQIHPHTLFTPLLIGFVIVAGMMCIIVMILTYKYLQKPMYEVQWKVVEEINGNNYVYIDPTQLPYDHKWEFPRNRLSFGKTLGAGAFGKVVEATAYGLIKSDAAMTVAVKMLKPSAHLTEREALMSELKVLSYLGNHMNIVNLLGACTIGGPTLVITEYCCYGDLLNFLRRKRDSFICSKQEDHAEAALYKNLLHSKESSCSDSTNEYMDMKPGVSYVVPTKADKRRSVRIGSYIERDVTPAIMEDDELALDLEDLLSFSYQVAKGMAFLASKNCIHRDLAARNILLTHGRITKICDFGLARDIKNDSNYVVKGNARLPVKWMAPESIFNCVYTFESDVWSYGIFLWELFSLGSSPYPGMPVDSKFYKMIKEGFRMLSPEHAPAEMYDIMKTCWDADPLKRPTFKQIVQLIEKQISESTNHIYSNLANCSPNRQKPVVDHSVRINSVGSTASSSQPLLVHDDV

Turning to `Cc1ccc(S(=O)(=O)O)cc1.[2H]C([2H])([2H])NC(=O)c1cc(Oc2ccc(NC(=O)Nc3ccc(Cl)c(C(F)(F)F)c3)c(F)c2)ccn1` [CM4309.TsOH, 4-(4-(3-(4-chloro-3-(trifluoromethyl)phenyl]ureido)-3-fluorophenoxy)-N-(methyl-d3)picolinamide p-toluenesulfonate], the HL_Lambda_z in series [1] (Mean of 4 rats) is 7.91 h; in series [1] (setting [6]), 8.55 h and 7.37 h and 7.48 h and 8.25 h. For the same compound, the “AUClast (Area Under Curve, Plasma Exposure) relative to CM4309.H2O” value in series [1] (setting [5]) is recorded as 11.2 folds. Moreover, the results for the “Cmax relative to CM4309.H2O” value in series [1] (setting [5]) and in series [2] (setting [9]) were 10.7 folds and 26 folds, respectively. The AUCINF_obs in series [1] (setting [6]) was 5631 ng·h/mL and 7380 ng·h/mL and 10651 ng·h/mL. Besides, the AUClast in series [1] (setting [6]) is 5542 ng·h/mL and 7237 ng·h/mL and 10406 ng·h/mL; in series [2] (setting [10]), 5362 ng·h/mL and 5045 ng·h/mL and 3827 ng·h/mL. Also, the Cmax in series [1] (setting [6]) was 312 ng/mL and 402 ng/mL and 518 ng/mL and 696 ng/mL; in series [1] (male, SD, rat, plasma, po, 3 mg/kg, Mean of 4 rats, read-out: Cmax) it was 482 ng/mL; in series [2] (female, Beagle, dog, plasma, po, 2.5 mg/kg, Mean of 4 dogs, read-out: Cmax), 728 ng/mL; in series [2] (setting [10]), 996 ng/mL and 437 ng/mL and 483 ng/mL. Besides, the MRTINF_obs in series [1] (setting [6]) was 12.05 h and 12.72 h and 13.6 h. Moreover, the time to peak (Tmax) was 4 h in series [1] (setting [6]); 5.5 h in series [1] (male, SD, rat, plasma, po, 3 mg/kg, Mean of 4 rats, read-out: Tmax); 6 h in series [1] (male, SD, rat, plasma, po, 3 mg/kg, individual rat, read-out: Tmax); 2 h in series [2] (female, Beagle, individual dog, read-out: Tmax). Further, the exposure AUC(0-t) in series [1] (setting [7]) was 7180 ng·h/mL; in series [1] (setting [8]), 5540 ng·h/mL; in series [2] (female, Beagle, dog, plasma, po, 2.5 mg/kg, Mean of 4 dogs) it was 4870 ng·h/mL; in series [2] (female, Beagle, dog, plasma, po, 2.5 mg/kg, individual dog) it was 5240 ng·h/mL. For the same compound, the values for the AUC(0-inf) in series [1] (setting [7]) and in series [1] (setting [8]) were 7340 ng·h/mL and 5700 ng·h/mL, respectively. Besides, the MRT inf in series [1] (setting [7]) was 13.3 h; in series [1] (setting [8]), 14.8 h. The “AUClast relative to CM4309.H2O” value in series [2] (setting [9]) was found to be 12.1 folds.
Take `CNC(=O)c1cc(Oc2ccc(NC(=O)Nc3ccc(Cl)c(C(F)(F)F)c3)cc2)ccn1` [CM4306, 4-(4-(3-(4-chloro-3-(trifluoromethyl)phenyl]ureido)-phenoxy)-(N-methyl)picolinamide]: in series [3] (individual rat, 4 mg/kg), the “AUC(0-t)” value is 23431 ng·h/mL and 40239 ng·h/mL and 24571 ng·h/mL; the “AUC(0-∞)” value was 41544 ng·h/mL and 25008 ng·h/mL; the Cmax was 642 ng/mL and 1568 ng/mL and 651 ng/mL; the “MRT(0-∞)” value was 23.2 h and 23.9 h. The time of peak concentration (Tmax) in series [3] (individual rat, 4 mg/kg) is 8.0 h and 2.0 h. Also, in series [3] (setting [11]), the AUC(0-inf) amounted to 24600 ng·h/mL, the half-life is 14.8 h and the MRT inf came out at 28.2 h. In series [3] (setting [12]), the AUC(0-inf) was 30400 ng·h/mL and the MRT inf was 25.1 h. Besides, the peak concentration (Cmax) in series [3] (male, SD, rat, plasma, po, 4 mg/kg, mean value of 3 rats, read-out: Cmax) was 954 ng/mL. Also, the Tmax in series [3] (male, SD, rat, plasma, po, 4 mg/kg, mean value of 3 rats, read-out: Tmax) came out at 6 h. The exposure AUC(0-t) in series [3] (mean value of 3 rats) was found to be 29414 ng·h/mL. In addition, the “results (inhibition efficacy)” value in series [4] is “effective”.
For the compound `[2H]C([2H])([2H])NC(=O)c1cc(Oc2ccc(NC(=O)Nc3ccc(Cl)c(C(F)(F)F)c3)c(F)c2)ccn1` [CM4309.H2O], in series [1] (Mean of 4 rats), the AUCINF_obs is 664 ng·h/mL, the AUClast is 643 ng·h/mL, the maximum concentration (Cmax) is 45.2 ng/mL and the HL_Lambda_z is reported as 7.62 h. Moreover, in series [1] (Mean of 4 rats), the MRTINF_obs is given as 13.55 h and the Tmax is 6.5 h. Besides, in series [1] (individual rat, 3 mg/kg), the AUCINF_obs was 701 ng·h/mL and 827 ng·h/mL and 657 ng·h/mL and 470 ng·h/mL; the AUClast is 675 ng·h/mL and 806 ng·h/mL and 635 ng·h/mL and 459 ng·h/mL; the peak concentration (Cmax) is 52.6 ng/mL and 53.3 ng/mL and 42.9 ng/mL and 31.8 ng/mL; the HL_Lambda_z was 8.73 h and 9.26 h and 6.41 h and 6.08 h. In addition, in series [1] (individual rat, 3 mg/kg), the MRTINF_obs is 14.87 h and 14.06 h and 13 h and 12.25 h; the time to peak (Tmax) is 6 h and 4 h and 8 h. In series [2] (Mean of 4 dogs), the AUClast is 404 ng·h/mL, the peak concentration (Cmax) is 28 ng/mL and the time to peak (Tmax) is listed as 20 h. In series [2] (individual dog, 2.5 mg/kg), the AUClast was 319 ng·h/mL and 829 ng·h/mL and 243 ng·h/mL and 224 ng·h/mL; the Cmax was 34.6 ng/mL and 50 ng/mL and 11.1 ng/mL and 16.4 ng/mL; the time to peak (Tmax) is 24 h and 8 h.

As a reminder, the Cmax is the peak of the concentration-time curve. The term Tmax denotes the time from dosing to the highest level. One may read the AUC(0-t) as exposure summed from dosing to a finite time, without extrapolation to infinity. As usually defined, the half-life is the time in which the quantity being followed falls by half. High values mean slow decline, low ones rapid decline.

The values are drawn from patent US20150175545A1, “Preparation Method of Fluoro-Substituted Deuterated Diphenylurea” (SUZHOU ZELGEN BIOPHARMACEUTICAL CO., LTD, priority 2012, published 2015).
